Assay results reported in US20250263395A1, “COMPOUNDS THAT MEDIATE PROTEIN DEGRADATION AND METHODS OF USE THEREOF” (Monte Rosa Therapeutics AG, priority 2022, published 2025).

Legend:
CDK2 = CDK2 (Homo sapiens (Human), UniProt P24941); test: CDK2 NanoBiT assay (HiBiT-tagged CDK2 degradation); assay type: cell-based; conditions: HEK293, HEK293 clonal line, C-terminal HiBiT tag on CDK2, LgBiT; 24 hours
Method: Example 145. NanoBiT Assay
A HEK293 clonal line with a CRISPR knock-in C-terminal HiBiT tag on CDK2 and stably expressing LgBiT protein was obtained from Promega (Madison, WI). Cells were plated at 5000 cells per well using Multiflo (BioTek) in 384-well white solid bottom plates (Corning, 3570BC) in 25 ul volume in DMEM media (DMEM, high glucose, HEPES, no phenol red (ThermoFisher Scientific, 21063029)) containing 10% FBS (Corning, 35-075-CV), 1% Peniciliin/Streptomycin ((ThermoFisher Scientific, 15140-122), and 1% Endurazine (Nano-Glo Endurazine Live Cell Substrate (Promega, N2571)). Cells were incubated for 16 hours at 37 C, 5% CO2. 75 nL of a compound at 30 μM were dosed into the plate using an Echo® 650 liquid handler (Labcyte). Cells were incubated at 37° C., 5% CO2 for 24 hours and then signal was read on a Pherastar FSX using “LUM plus” optic module.
Analysis was performed in Scinamic (Scinamic, Cambridge, MA). Luminescence response (R) was calculated by the formula: response=100*(S−N)/(P−N) where S is the signal of the well, N and P the mean negative and positive control values respectively of the same plate. The luminescence response was then fitted in Scinamic using a 3-parameter agonist logistic fit (hillslope=1, EC50>0, top/bottom unconstrained).

CRBN-DDB1 = CRBN-DDB1 (Homo sapiens (Human), UniProt Q96SW2); test: CRBN HTRF assay (Cy5-Thalidomide probe displacement); assay type: binding; conditions: CRBN-DDB1 2.5 nM, Cy5-Thalidomide 100 nM, 30 min; Ki from geometric mean IC50 by Cheng-Prusoff
CRBN-DDB1, sequence (Q96SW2 whole entry): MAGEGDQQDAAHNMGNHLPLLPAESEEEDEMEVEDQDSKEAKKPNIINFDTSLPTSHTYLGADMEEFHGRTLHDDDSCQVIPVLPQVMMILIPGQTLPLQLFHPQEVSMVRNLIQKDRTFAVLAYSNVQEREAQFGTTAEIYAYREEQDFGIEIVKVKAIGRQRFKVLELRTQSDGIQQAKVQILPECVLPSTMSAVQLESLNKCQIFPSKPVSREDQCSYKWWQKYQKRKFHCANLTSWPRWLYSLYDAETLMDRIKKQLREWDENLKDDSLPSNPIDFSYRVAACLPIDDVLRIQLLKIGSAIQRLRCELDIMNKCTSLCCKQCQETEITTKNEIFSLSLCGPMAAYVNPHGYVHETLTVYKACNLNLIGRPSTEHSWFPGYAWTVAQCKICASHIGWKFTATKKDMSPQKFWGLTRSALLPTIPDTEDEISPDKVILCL
CRBN-DDB1, sequence (Q16531 whole entry partner): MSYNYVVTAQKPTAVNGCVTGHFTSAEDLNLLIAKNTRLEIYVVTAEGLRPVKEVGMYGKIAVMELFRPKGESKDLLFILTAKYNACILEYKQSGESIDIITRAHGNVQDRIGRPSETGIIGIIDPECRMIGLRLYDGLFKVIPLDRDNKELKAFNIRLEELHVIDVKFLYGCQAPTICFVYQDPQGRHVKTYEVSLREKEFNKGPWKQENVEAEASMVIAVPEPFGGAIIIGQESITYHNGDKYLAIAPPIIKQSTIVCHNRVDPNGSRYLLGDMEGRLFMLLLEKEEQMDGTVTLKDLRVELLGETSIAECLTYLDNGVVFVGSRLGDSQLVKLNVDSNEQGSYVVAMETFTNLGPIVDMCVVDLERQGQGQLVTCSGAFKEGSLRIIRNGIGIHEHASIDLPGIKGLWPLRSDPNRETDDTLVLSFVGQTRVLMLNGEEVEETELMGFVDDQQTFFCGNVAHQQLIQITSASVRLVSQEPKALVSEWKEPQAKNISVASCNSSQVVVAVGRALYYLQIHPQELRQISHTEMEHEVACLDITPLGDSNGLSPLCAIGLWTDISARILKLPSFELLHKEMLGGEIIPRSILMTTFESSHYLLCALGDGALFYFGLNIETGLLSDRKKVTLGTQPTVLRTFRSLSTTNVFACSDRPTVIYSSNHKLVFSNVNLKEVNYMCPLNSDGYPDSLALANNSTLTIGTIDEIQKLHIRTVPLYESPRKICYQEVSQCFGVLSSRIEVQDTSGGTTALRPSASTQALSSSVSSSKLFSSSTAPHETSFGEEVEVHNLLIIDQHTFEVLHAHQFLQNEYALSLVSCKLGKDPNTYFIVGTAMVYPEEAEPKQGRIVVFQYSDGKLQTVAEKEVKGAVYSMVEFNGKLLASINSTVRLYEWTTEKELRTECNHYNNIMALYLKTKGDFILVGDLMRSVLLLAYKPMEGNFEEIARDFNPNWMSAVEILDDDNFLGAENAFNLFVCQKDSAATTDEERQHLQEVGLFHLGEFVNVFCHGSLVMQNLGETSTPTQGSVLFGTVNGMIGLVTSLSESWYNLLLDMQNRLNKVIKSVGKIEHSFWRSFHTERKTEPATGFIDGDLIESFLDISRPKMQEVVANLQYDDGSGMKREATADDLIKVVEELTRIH
Method: Compound activity was monitored in a Homogenous Time-Resolved Fluorescence (HTRF) assay using 1-[5-({2-[2-(2-{[2-(2,6-dioxopiperidin-3-yl)-1,3-dioxo-2,3-dihydro-1H-isoindol-4-yl]oxy}acetamido)ethoxy]ethyl}carbamoyl)pentyl]-3,3-dimethyl-2-[(1E,3E)-5-[(2E)-1,3,3-trimethyl-5-sulfo-2,3-dihydro-1H-indol-2-ylidene]penta-1,3-dien-1-yl]-3H-indol-1-ium-5-sulfonate as a fluorescent probe. Biochemical assays were conducted in Greiner white 384 well HiBase plates (Cat. No 784075-25) in 10 μL total volume. A one pot detection solution of CRBN-DDB1 (2.5 nM), Anti-His Terbium Cryptate Gold (1×, PerkinElmer Cat. #: 61HI2TLB), and Cy5-Thalidomide (100 nM, Tenova Cat.: T52461) was prepared in 20 mM HEPES, 20 mM NaCl, 0.2 mM TCEP, 0.2 mM EDTA, and 0.005% Tween20 was dispensed to each assay plate. Compounds were stored in dry, ambient temperatures at 10 mM. A 10-point, 1:3 dilution series was prepared from 10 mM stock concentrations in Echo-compatible LDV plates. 10 nL of each compound dilution series was dispensed into assays wells using an Echo 650 (Labcyte inc. USA). 10 nL of 10 mM Lenalidomide was transferred into the active-control wells for the assay and 10 nL of DMSO was transferred into the neutral-control wells. The assay was then allowed to incubate for 30 min at ambient temperature after transferring compound. Plate measurements were taken on a Pherastar FSX (BMG Labtech, Germany) using the HTRF Red filter (Ex. 337 nm, em1: 620 nm, em2: 665 nm) (Flashes: 50, Integration time: 60-400 us, Z-height: 10 mm, Ratio-multiplier: 10,000). The HTRF signal was then subsequently normalized to the neutral and active controls. Analysis and IC50 values were derived using KNIME analytics (KNIME Zurich) transformation and fitting within Collaborative Drug Discovery (Collaborative Drug Discovery USA). Ki was derived from the geometric mean of the IC50 values using the Cheng-Prustoff transformation.

Dmax (CDK2) | Ki (CRBN-DDB1) | Compound
> 80% | ≤ 100 nM | O=C1CCC(c2c(F)cc(N3CC[C@@H](NC(=O)OCC4CC5(CCC5)C4)C3)cc2F)C(=O)N1 (stereo partly drawn) [Compound 64, spiro[3.3]heptan-2-ylmethyl ((3R)-1-(4-(2,6-dioxopiperidin-3-yl)-3,5-difluorophenyl)pyrrolidin-3-yl)carbamate]
– | ≤ 100 nM | [2H]C([2H])([2H])N(C(=O)N1CC(OC(=O)NC2CN(c3cc(F)c(C4CCC(=O)NC4=O)c(F)c3)C2)C1)c1ccc(C)cc1 (centres unmarked) [Compound 118, 1-((methyl-d3)(p-tolyl)carbamoyl)azetidin-3-yl (1-(4-(2,6-dioxopiperidin-3-yl)-3,5-difluorophenyl)azetidin-3-yl)carbamate]
50 to 80% | ≤ 100 nM | CC1(Nc2nnc(C3CC4(CCC4)C3)o2)CN(c2cc(F)c(C3CCC(=O)NC3=O)c(F)c2)C1 (centres unmarked) [Compound 101, 3-(2,6-difluoro-4-(3-methyl-3-((5-(spiro[3.3]heptan-2-yl)-1,3,4-oxadiazol-2-yl)amino)azetidin-1-yl)phenyl)piperidine-2,6-dione]
> 80% | ≤ 100 nM | N#Cc1ccc(-c2nnc(NC3CN(c4cc(F)c(C5CCC(=O)NC5=O)c(F)c4)C3)o2)cc1 (centres unmarked) [Compound 95, 4-(5-((1-(4-(2,6-dioxopiperidin-3-yl)-3,5-difluorophenyl)azetidin-3-yl)amino)-1,3,4-oxadiazol-2-yl)benzonitrile]
> 80% | ≤ 100 nM | CN(C(=O)C12CC(OC(=O)NC3CN(c4cc(F)c(C5CCC(=O)NC5=O)c(F)c4)C3)(C1)C2)c1ccccc1 (centres unmarked) [Compound 81, 3-(methyl(phenyl)carbamoyl)bicyclo[1.1.1]pentan-1-yl (1-(4-(2,6-dioxopiperidin-3-yl)-3,5-difluorophenyl)azetidin-3-yl)carbamate]
> 80% | ≤ 100 nM | O=C1CCC(c2c(F)cc([C@@H]3C[C@H]3NC(=O)OCC3CC4(CCC4)C3)cc2F)C(=O)N1 (some centres unmarked) [Compound 38]
> 80% | 100 to 1000 nM | COc1c(N2CC(Nc3nnc(C4CC5(CCC5)C4)o3)C2)ccc(C2CCC(=O)NC2=O)c1F (centres unmarked) [Compound 94, 3-(2-fluoro-3-methoxy-4-(3-((5-(spiro[3.3]heptan-2-yl)-1,3,4-oxadiazol-2-yl)amino)azetidin-1-yl)phenyl)piperidine-2,6-dione]
10 to 50% | ≤ 100 nM | O=C1CCC(c2c(F)cc(N3CC(NC(=O)OC45CC(C(=O)N6CCC6)(C4)C5)C3)cc2F)C(=O)N1 (centres unmarked) [Compound 126, 3-(azetidine-1-carbonyl)bicyclo[1.1.1]pentan-1-yl (1-(4-(2,6-dioxopiperidin-3-yl)-3,5-difluorophenyl)azetidin-3-yl)carbamate]
50 to 80% | – | Cc1ccnc(N2CC(OC(=O)NC3CN(c4cc(F)c(C5CCC(=O)NC5=O)c(F)c4)C3)C2)c1 (centres unmarked) [Compound 6, 1-(4-methylpyridin-2-yl)azetidin-3-yl (1-(4-(2,6-dioxopiperidin-3-yl)-3,5-difluorophenyl)azetidin-3-yl)carbamate]
50 to 80% | 100 to 1000 nM | O=C1CCC(c2c(F)cc(N3CC(NC(=O)OCc4ccccc4)C3)cc2F)C(=O)N1 (centres unmarked) [Compound 37, benzyl (1-(4-(2,6-dioxopiperidin-3-yl)-3,5-difluorophenyl)azetidin-3-yl)carbamate]
10 to 50% | ≤ 100 nM | CN(C)C(=O)N1CC[C@@H](OC(=O)NC2CN(c3cc(F)c(C4CCC(=O)NC4=O)c(F)c3)C2)C1 (stereo partly drawn) [Compound 18, (R)-1-(dimethylcarbamoyl)pyrrolidin-3-yl (1-(4-(2,6-dioxopiperidin-3-yl)-3,5-difluorophenyl)azetidin-3-yl)carbamate]
> 80% | ≤ 100 nM | CC1(C)CCC(COC(=O)NC2CN(c3cc(F)c(C4CCC(=O)NC4=O)c(F)c3)C2)CC1 (centres unmarked) [Compound 53, (4,4-dimethylcyclohexyl)methyl (1-(4-(2,6-dioxopiperidin-3-yl)-3,5-difluorophenyl)azetidin-3-yl)carbamate]
50 to 80% | ≤ 100 nM | C[C@@H]1[C@@H](Nc2nnc(C3CC4(CCC4)C3)o2)CN1c1cc(F)c(C2CCC(=O)NC2=O)c(F)c1 (stereo partly drawn) [Compound 142, 3-(2,6-difluoro-4-((2R,3S)-2-methyl-3-((5-(spiro[3.3]heptan-2-yl)-1,3,4-oxadiazol-2-yl)amino)azetidin-1-yl)phenyl)piperidine-2,6-dione]
> 80% | ≤ 100 nM | CN(C(=O)N1CC(OC(=S)NC2CN(c3cc(F)c(C4CCC(=O)NC4=O)c(F)c3)C2)C1)C1CC1 (centres unmarked) [Compound 108, O-(1-(cyclopropyl(methyl)carbamoyl)azetidin-3-yl) (1-(4-(2,6-dioxopiperidin-3-yl)-3,5-difluorophenyl)azetidin-3-yl)carbamothioate]
> 80% | ≤ 100 nM | C[C@H]1CC[C@H](COC(=O)NC2CN(c3cc(F)c(C4CCC(=O)NC4=O)c(F)c3)C2)CC1 (some centres unmarked) [Compound 52, ((1r, 4r)-4-methylcyclohexyl)methyl (1-(4-(2,6-dioxopiperidin-3-yl)-3,5-difluorophenyl)azetidin-3-yl)carbamate]
10 to 50% | ≤ 100 nM | CN(C(=O)C12CC(OC(=O)NC3CN(c4cc(F)c(C5CCC(=O)NC5=O)c(F)c4)C3)(C1)C2)c1ccc(C#N)cc1 (centres unmarked) [Compound 120, 3-((4-cyanophenyl)(methyl)carbamoyl)bicyclo[1.1.1]pentan-1-yl (1-(4-(2,6-dioxopiperidin-3-yl)-3,5-difluorophenyl)azetidin-3-yl)carbamate]
50 to 80% | 100 to 1000 nM | O=C1CCC(c2c(F)cc(N3CC(NC(=O)OC4CN(C(=O)c5ccc(F)cc5)C4)C3)cc2F)C(=O)N1 (centres unmarked) [Compound 22, 1-(4-fluorobenzoyl)azetidin-3-yl (1-(4-(2,6-dioxopiperidin-3-yl)-3,5-difluorophenyl)azetidin-3-yl)carbamate]
– | ≤ 100 nM | [2H]C([2H])([2H])N(C(=O)N1CC(OC(=O)NC2CN(c3cc(F)c(C4CCC(=O)NC4=O)c(F)c3)C2)C1)c1ccc(Cl)cc1 (centres unmarked) [Compound 119, 1-((4-chlorophenyl)(methyl-d3)carbamoyl)azetidin-3-yl (1-(4-(2,6-dioxopiperidin-3-yl)-3,5-difluorophenyl)azetidin-3-yl)carbamate]
50 to 80% | – | Cc1ccc(C)c(N(C)C(=O)C23CC(OC(=O)NC4CN(c5cc(F)c(C6CCC(=O)NC6=O)c(F)c5)C4)(C2)C3)c1 (centres unmarked) [Compound 111]
> 80% | – | O=C1CCC(c2c(F)cc(N3CC(NC(=O)OCC4CC5(CCC5)C4)C3)cc2F)C(=O)N1 (centres unmarked) [Compound 1, spiro[3.3]heptan-2-ylmethyl (1-(4-(2,6-dioxopiperidin-3-yl)-3,5-difluorophenyl)azetidin-3-yl)carbamate]
> 80% | – | Cc1cccc(N(C)C(=O)N2CC(OC(=O)NC3CN(c4cc(F)c(C5CCC(=O)NC5=O)c(F)c4)C3)C2)c1 (centres unmarked) [Compound 10, 1-(methyl(m-tolyl)carbamoyl)azetidin-3-yl (1-(4-(2,6-dioxopiperidin-3-yl)-3,5-difluorophenyl)azetidin-3-yl)carbamate]
50 to 80% | – | O=C1CCC(c2c(F)cc(N3CC(NC(=O)OC4CN(C(=O)N5CCCC5)C4)C3)cc2F)C(=O)N1 (centres unmarked) [Compound 32]
50 to 80% | – | N#Cc1c(N2CC(NC(=O)OCC3CC4(CCC4)C3)C2)ccc(C2CCC(=O)NC2=O)c1Cl (centres unmarked) [Compound 85, spiro[3.3]heptan-2-ylmethyl (1-(3-chloro-2-cyano-4-(2,6-dioxopiperidin-3-yl)phenyl)azetidin-3-yl)carbamate]
